From PMC6094957, “BdorOR88a Modulates the Responsiveness to Methyl Eugenol in Mature Males of Bactrocera dorsalis (Hendel)” (Frontiers in Physiology, 2018)

Legend:
[1] = biological target: T1, BdorOR63a-1/BdorOrco (Bactrocera dorsalis, UniProt A0A0G2UMW5); test: two-electrode voltage clamp, Xenopus oocytes; assay type: cell-based; conditions: weak response at 1 × 10^-3 M ME; co-expressed BdorOrco; holding potential -80 mV; Ringer's pH 7.6
T1 construct: gene OR63a-1; full-length OR63a-1 (1,248 nt, 415 aa) co-expressed with BdorOrco from pCS2+ cRNAs in Xenopus laevis oocytes; with Odorant receptor coreceptor
T1 sequence (A0A0G2UMW5 1-415): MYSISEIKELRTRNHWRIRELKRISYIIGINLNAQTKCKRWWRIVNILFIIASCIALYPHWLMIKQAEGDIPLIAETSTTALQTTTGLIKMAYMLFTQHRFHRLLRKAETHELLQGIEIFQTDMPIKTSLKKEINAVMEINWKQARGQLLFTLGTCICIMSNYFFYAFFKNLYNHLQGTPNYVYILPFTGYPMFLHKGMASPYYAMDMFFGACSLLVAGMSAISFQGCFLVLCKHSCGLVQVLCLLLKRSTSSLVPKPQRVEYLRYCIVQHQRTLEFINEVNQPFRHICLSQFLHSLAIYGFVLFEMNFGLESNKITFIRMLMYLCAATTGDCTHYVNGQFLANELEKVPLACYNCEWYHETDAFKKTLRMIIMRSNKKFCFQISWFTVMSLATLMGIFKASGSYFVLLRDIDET
T1 sequence (B2Z9Z0 1-473 partner): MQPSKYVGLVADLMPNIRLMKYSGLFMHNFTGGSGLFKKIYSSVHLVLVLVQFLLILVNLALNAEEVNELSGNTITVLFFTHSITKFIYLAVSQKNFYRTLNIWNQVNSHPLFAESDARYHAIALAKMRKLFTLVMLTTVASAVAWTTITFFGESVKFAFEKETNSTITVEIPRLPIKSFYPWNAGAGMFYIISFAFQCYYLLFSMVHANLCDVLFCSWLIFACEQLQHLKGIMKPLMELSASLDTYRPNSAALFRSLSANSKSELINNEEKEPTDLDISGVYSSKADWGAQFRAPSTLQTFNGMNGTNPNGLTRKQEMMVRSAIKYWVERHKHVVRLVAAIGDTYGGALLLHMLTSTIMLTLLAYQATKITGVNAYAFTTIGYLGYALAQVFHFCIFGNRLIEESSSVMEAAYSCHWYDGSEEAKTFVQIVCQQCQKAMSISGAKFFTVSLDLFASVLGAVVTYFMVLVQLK

[2] = biological target: T2, BdorOR88a/BdorOrco (Bactrocera dorsalis, UniProt A0A0G2UKI5); test: two-electrode voltage clamp, Xenopus oocytes; assay type: cell-based
T2 construct: gene OR88a; full-length OR88a (1,245 nt, 414 aa) co-expressed with BdorOrco from pCS2+ cRNAs in Xenopus laevis oocytes; with Odorant receptor coreceptor
T2 sequence (A0A0G2UKI5 1-414): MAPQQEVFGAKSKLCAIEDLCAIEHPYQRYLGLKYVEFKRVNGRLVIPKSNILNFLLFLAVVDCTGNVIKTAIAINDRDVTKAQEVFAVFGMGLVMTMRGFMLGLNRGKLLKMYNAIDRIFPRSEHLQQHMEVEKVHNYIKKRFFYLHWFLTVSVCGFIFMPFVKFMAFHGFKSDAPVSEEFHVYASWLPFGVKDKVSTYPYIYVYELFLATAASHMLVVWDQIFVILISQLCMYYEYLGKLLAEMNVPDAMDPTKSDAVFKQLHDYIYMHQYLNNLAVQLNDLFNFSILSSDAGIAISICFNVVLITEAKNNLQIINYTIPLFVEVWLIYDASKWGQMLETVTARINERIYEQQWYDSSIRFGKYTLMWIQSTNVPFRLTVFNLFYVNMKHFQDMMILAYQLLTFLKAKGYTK
T2 sequence (B2Z9Z0 1-473 partner): T1 sequence (B2Z9Z0 1-473 partner)
Description: two-electrode voltage clamp, Xenopus oocytes on BdorOR88a/BdorOrco | half the maximal effective concentration

- current at 1 × 10^-3 M [1]: ~ 30 nA
- EC50 [2]: 28.3 µM
SMILES: C=CCc1ccc(OC)c(OC)c1 [ME, methyl eugenol]
